The values that follow come from US12630498B2 (Genzyme Corporation, priority 2019, dated 2026).

By Emax is commonly meant the maximal effect, on the per cent scale that the assay sets. What is called EC50 is the concentration at which the effect is half-maximal. The low end stands for an effect from little substance, the high end for a need for much substance.

The target of this assay is T1, human Cystic Fibrosis Transmembrane Conductance Regulator (CFTR) harboring the ΔF508 mutation (Homo sapiens, UniProt P13569, DEL508-508).
T1 construct: expressed in transfected cells; host or cells: H441 carcinoma line (G418-selected)
The experiment in a line: H441 cell ΔF508-CFTR-HRP cell surface assay (Emax and EC50). Format: cell-based. The following applies: for Emax: NCI-H441, NA = Not active. The text has this: Example 315: H441 Cell Emax and EC50 Two cell lines were used, the H441 carcinoma line and the CFHBE41o- (41o-) human bronchial epithelial line. Both cell lines expressed human Cystic Fibrosis Transmembrane Conductance Regulator (CFTR) harboring the ΔF508 mutation and with an in-frame fusion in CFTR extracellular loop 4 of Horse Radish Peroxidase (HRP) under control of the CMV promoter. In the presence of the HRP tag, ΔF508-CFTR transported to the cell surface was detectable upon addition of an HRP substrate (Luminata Forte). Both cell types were cultivated at 37° C. with CO2. […] For both cell types, the medium was changed every other day unless the culture was at low % confluence. Cells were used for the assays at 75% confluence. To a polypropylene (PP) 384-well plate, 15 pls DMSO was added to all wells in columns 1-22 and 24 (low Control). 15 μls of 260 μM VX809 (Lumacaftor), Selleckchem […], was added to column 23 wells (high Control). 15 pls of 10 mM test compound or VX809 (control) were added to wells of row A. Serial dilutions of Row A compound were performed 2×15 pls in rows A through 0 (15-point). A PP, 384-well plate containing the appropriate cell culture medium was prepared for each assay plate with 100 pls per well. For the doxycycline-induced 41o-cells, doxycycline for both the assay plate and the medium dilution plate was added at 0.0005 mg/ml to the medium. Both cell lines were plated for the assay at 30 pls per 384-well at 3.4×10 e^5 cells per ml ( 10K cells/well). H441 cells were plated on opaque, white, Corning plate 3704. 41o-cells were plated on collagen-coated opaque, white, Corning plate 356665. For 41o-cells, doxycycline was added to the medium. Using FX (Beckman) protocol, 10 pls diluted compound or medium was added per well to the Assay Plate as: 2 pls DMSO Dilution plate well was diluted in 100 pls of the Medium Dilution Plate well, mixed, and 10 pls was transferred to the Assay Plate. The final assay dilution series was 24.5, 12.3, 6.1, 3.1, 1.5, 0.8, 0.4, 0.2, 0.1, 0.05, 0.02, 0.01, 0.006, 0.003, 0.001 and 0 μM. The 41o-assay plates were incubated at 37° C. w/CO2, the H441 assay plates were incubated at 27° C. w/CO2, each overnight for two nights. After being brought to room temperature, the assay plate liquid was removed. 30 uls of Luminata Forte (Millipore ELLUF0100) was added per well and incubated at room temperature for 10 min. The plates were then read on a Topcount, protocol LumiMatti (CPS, luminescence). The data was analyzed for % of maximum, maximum VX809 signal, and EC50 using Pearl and SPEED tools.

T1 sequence (P13569 with tags, fused parts or gaps DEL508-508): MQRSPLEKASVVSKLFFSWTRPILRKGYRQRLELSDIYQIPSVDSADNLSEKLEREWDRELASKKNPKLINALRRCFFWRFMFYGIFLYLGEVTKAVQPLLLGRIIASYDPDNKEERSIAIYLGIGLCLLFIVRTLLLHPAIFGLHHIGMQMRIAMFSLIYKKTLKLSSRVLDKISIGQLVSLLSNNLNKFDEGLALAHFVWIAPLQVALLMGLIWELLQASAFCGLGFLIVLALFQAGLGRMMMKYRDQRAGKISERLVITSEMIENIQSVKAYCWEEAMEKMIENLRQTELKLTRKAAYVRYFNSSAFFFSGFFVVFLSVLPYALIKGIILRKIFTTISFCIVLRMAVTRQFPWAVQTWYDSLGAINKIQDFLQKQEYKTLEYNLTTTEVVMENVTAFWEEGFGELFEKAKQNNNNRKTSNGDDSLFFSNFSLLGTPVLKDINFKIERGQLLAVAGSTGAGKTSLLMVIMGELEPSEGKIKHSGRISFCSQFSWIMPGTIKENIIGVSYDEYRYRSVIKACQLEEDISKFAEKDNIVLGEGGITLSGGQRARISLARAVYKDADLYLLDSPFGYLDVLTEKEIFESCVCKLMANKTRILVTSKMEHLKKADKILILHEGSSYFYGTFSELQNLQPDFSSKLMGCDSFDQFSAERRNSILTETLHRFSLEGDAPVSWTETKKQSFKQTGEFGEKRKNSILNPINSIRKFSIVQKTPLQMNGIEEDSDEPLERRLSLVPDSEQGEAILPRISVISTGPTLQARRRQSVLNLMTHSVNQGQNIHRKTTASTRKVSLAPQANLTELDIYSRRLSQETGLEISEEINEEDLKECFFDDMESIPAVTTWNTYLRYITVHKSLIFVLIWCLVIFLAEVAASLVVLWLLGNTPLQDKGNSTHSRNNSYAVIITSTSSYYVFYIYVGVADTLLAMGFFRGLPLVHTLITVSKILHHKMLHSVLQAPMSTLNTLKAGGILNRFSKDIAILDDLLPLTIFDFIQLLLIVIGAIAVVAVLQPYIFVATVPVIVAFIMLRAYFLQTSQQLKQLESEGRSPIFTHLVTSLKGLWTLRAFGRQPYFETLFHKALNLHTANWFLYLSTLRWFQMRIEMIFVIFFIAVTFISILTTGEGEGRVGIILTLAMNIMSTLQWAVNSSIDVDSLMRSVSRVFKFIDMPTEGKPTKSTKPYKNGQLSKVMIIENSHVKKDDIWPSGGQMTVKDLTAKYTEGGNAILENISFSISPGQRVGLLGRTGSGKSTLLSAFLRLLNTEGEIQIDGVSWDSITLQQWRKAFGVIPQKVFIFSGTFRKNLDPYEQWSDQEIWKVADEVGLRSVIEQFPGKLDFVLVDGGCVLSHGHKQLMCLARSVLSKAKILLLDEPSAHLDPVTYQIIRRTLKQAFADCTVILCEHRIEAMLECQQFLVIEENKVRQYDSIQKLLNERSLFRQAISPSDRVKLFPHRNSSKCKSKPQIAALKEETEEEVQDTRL

`NC(N)=Nc1ccc(C[C@@H](NC(=O)c2ccc3ccccc3c2OCc2ccc(C(F)(F)F)cc2)C(=O)O)cc1` [Example 105, (R)-3-(4-((diaminomethylene)amino)phenyl)-2-(1-((4-(trifluoromethyl)benzyl)oxy)-2-naphthamido)propanoic Acid] registered an Emax of 18.8%.

`N#Cc1ccc(C[C@H](NC(=O)c2ccc3ccccc3c2OCc2ccc(C(F)(F)F)cc2)C(=O)O)cc1` [Example 107, (S)-3-(4-cyanophenyl)-2-(1-((4-(trifluoromethyl)benzyl)oxy)-2-naphthamido)propanoic Acid] gave an EC50 of 10.9 µM and a maximal response (Emax) of 63.4%.

`CC(C)(C)C[C@H](NC(=O)c1ccc2ccccc2c1OCc1ccc(OC(F)F)cc1)C(=O)O` [Example 108, (S)-2-(1-((4-(difluoromethoxy)benzyl)oxy)-2-naphthamido)-4,4-dimethylpentanoic Acid] had an Emax of 4.7%.

Turning to `CC(C)(C)C[C@H](NC(=O)c1ccc2cc(F)ccc2c1OCC1CCC(F)(F)CC1)C(=O)O` [Example 109, (S)-2-(1-((4,4-difluorocyclohexyl)methoxy)-6-fluoro-2-naphthamido)-4,4-dimethylpentanoic Acid], the EC50 worked out at 14.2 µM and the Emax was 52.7%.

`CC(C)(C)C[C@H](NC(=O)c1ccc2cc(F)ccc2c1OCc1ccc(S(F)(F)(F)(F)F)cc1)C(=O)O` [Example 112, (S)-2-(6-fluoro-1-((4-(pentafluoro-16-sulfanyl)benzyl)oxy)-2-naphthamido)-4,4-dimethylpentanoic Acid] showed an EC50 of 1.9 µM and an Emax of 58.1%.

`O=C(N[C@H](C(=O)O)C1CCCC1)c1ccc2cc(F)ccc2c1OCc1ccc(S(F)(F)(F)(F)F)cc1` [Example 113, (S)-2-cyclopentyl-2-(6-fluoro-1-((4-(pentafluoro-16-sulfanyl)benzyl)oxy)-2-naphthamido)acetic Acid] showed a concentration for a half-maximal effect (EC50) of 3.7 µM and a maximal response (Emax) of 58.2%.

As for `CC(C)(C)C[C@H](NC(=O)c1ccc2cc(F)ccc2c1OCc1ccc(SC(F)(F)F)cc1)C(=O)O` [Example 117, (S)-2-(6-fluoro-1-((4-((trifluoromethyl)thio)benzyl)oxy)-2-naphthamido)-4,4-dimethylpentanoic Acid], the EC50 is 1.6 µM and the maximal effect (Emax) turned out to be 47%.

`COC(C)(C)[C@H](NC(=O)c1ccc2cc(F)ccc2c1OCc1ccc(SC(F)(F)F)cc1)C(=O)O` [Example 118, (S)-2-(6-fluoro-1-((4-((trifluoromethyl)thio)benzyl)oxy)-2-naphthamido)-3-methoxy-3-methylbutanoic Acid] yielded an EC50 of 2.8 µM and an Emax of 71%.

Take `O=C(N[C@@H](Cc1ccccc1)C(=O)O)c1ccc2ccccc2c1OCc1ccc2c(c1)OCO2` [Example 121, (1-(benzo[d][1,3]dioxol-5-ylmethoxy)-2-naphthoyl)-L-phenylalanine]: the EC50 came out at 0.2 µM and the Emax turned out to be 3.7%.

Take `O=C(N[C@@H](Cc1ccccc1)C(=O)O)c1ccc2ccccc2c1OCc1ccc(Br)cc1` [Example 122, (1-((4-bromobenzyl)oxy)-2-naphthoyl)-L-phenylalanine]: it took 0.3 µM to reach a half-maximal effect (EC50) and the Emax came to 24.5%.

Consider `CC(Oc1c(C(=O)N[C@@H](Cc2ccccc2)C(=O)O)ccc2ccccc12)c1ccc(Br)cc1` (stereo partly drawn) [Example 123, (1-(1-(4-bromophenyl)ethoxy)-2-naphthoyl)-L-phenylalanine], for which the Emax stood at 4%.

`CC(Oc1c(C(=O)N[C@@H](Cc2ccccc2)C(=O)O)ccc2ccccc12)c1ccc(C(F)(F)F)cc1` (stereo partly drawn) [Example 124, (1-(1-(4-(trifluoromethyl)phenyl)ethoxy)-2-naphthoyl)-L-phenylalanine] came in with an EC50 of 1.3 µM and a maximal response (Emax) of 10.5%.

On to `N#Cc1ccc(COc2c(C(=O)N[C@@H](Cc3ccccc3)C(=O)O)ccc3ccccc23)cc1` [Example 125, (1-((4-cyanobenzyl)oxy)-2-naphthoyl)-L-phenylalanine], for which the midpoint of the response, the EC50, lay at 20.3 µM and the Emax came to 31.5%.

As to `O=C(N[C@H](C(=O)O)C(c1ccccc1)c1ccccc1)c1ccc2ccccc2c1OCc1ccc(C(F)(F)F)cn1` [Example 132, (S)-3,3-diphenyl-2-(1-((5-(trifluoromethyl)pyridin-2-yl)methoxy)-2-naphthamido)propanoic Acid], the EC50 was 11.6 µM and the maximum response (Emax) stood at 49.2%.

`CO[C@@H](C)[C@H](NC(=O)c1ccc2ccccc2c1OCc1ccc(C(F)(F)F)cc1)C(=O)O` [Example 135, O-methyl-N-(1-((4-(trifluoromethyl)benzyl)oxy)-2-naphthoyl)-L-allothreonine] returned an EC50 of 4.7 µM and a maximal effect (Emax) of 93.5%.

Turning to `COCC[C@H](NC(=O)c1ccc2ccccc2c1OCc1ccc(C(F)(F)F)cc1)C(=O)O` [Example 137, O-methyl-N-(1-((4-(trifluoromethyl)benzyl)oxy)-2-naphthoyl)-L-homoserine], the EC50 stood at 16.4 µM and the maximal response (Emax) was 38.4%.

Take `CC(C)(O)[C@H](NC(=O)c1ccc2ccccc2c1OCc1ccc(C(F)(F)F)cc1)C(=O)O` [Example 138, (S)-3-hydroxy-3-methyl-2-(1-((4-(trifluoromethyl)benzyl)oxy)-2-naphthamido)butanoic Acid]: a half-maximal response (EC50) required 16.4 µM and the Emax worked out at 22.4%.

The compound `C[C@@H](OCc1ccccc1)C(NC(=O)c1ccc2ccccc2c1OCc1ccc(C(F)(F)F)cc1)C(=O)O` (stereo partly drawn) [Example 144, (3R)-3-(benzyloxy)-2-(1-((4-(trifluoromethyl)benzyl)oxy)-2-naphthamido)butanoic Acid] displayed an EC50 of 4.5 µM and an Emax of 140%.

Compound `Cc1cc(COc2c(C(=O)NC(C(=O)O)[C@@H](C)OCc3ccccc3)ccc3ccccc23)no1` (stereo partly drawn) [Example 145, (3R)-3-(benzyloxy)-2-(1-((5-methylisoxazol-3-yl)methoxy)-2-naphthamido)butanoic Acid] yielded an EC50 of 12 µM and an Emax of 72.6%.

In the case of `C[C@@H](OCc1ccccc1)C(NC(=O)c1ccc2ccccc2c1OCC1CCC(CO)CC1)C(=O)O` (stereo partly drawn) [Example 146, (3R)-3-(benzyloxy)-2-(1-((4-(hydroxymethyl)cyclohexyl)methoxy)-2-naphthamido)butanoic Acid], the response was half-maximal at 17.4 µM (EC50) and the Emax was found to be 62.2%.

In the case of `C[C@@H](OCc1ccccc1)C(NC(=O)c1ccc2ccccc2c1OCC1CC2CCC1C2)C(=O)O` (stereo partly drawn) [Example 147, (3R)-3-(benzyloxy)-2-(1-(bicyclo[2.2.1]heptan-2-ylmethoxy)-2-naphthamido)butanoic Acid], the EC50 was 16.8 µM and the Emax is 68.9%.

`C[C@@H](OCc1ccccc1)C(NC(=O)c1ccc2ccccc2c1OCc1nc2ccccc2s1)C(=O)O` (stereo partly drawn) [Example 148, (3R)-2-(1-(benzo[d]thiazol-2-ylmethoxy)-2-naphthamido)-3-(benzyloxy)butanoic Acid] came in with an EC50 of 18.3 µM and an Emax of 65.2%.

As to `O=C(N[C@H](C(=O)O)C1CCCC1)c1ccc2ccccc2c1OCc1ccc(S(=O)(=O)C(F)(F)F)cc1` [Example 156, (S)-2-cyclopentyl-2-(1-((4-((trifluoromethyl)sulfonyl)benzyl)oxy)-2-naphthamido)acetic Acid], the concentration for a half-maximal effect (EC50) stood at 1.9 µM and the Emax came to 51.7%.

`CC(C)(C)C[C@H](NC(=O)c1ccc2ccccc2c1OCc1ccc(S(=O)(=O)C(F)(F)F)cc1)C(=O)O` [Example 157, (S)-4,4-dimethyl-2-(1-((4-((trifluoromethyl)sulfonyl)benzyl)oxy)-2-naphthamido)pentanoic Acid] yielded an EC50 of 7.1 µM and a maximal response (Emax) of 55%.

In turn, `CC(C)(C)C[C@H](NC(=O)c1ccc2ccccc2c1OCc1ccc(S(C)(=O)=O)cc1)C(=O)O` [Example 158, (S)-4,4-dimethyl-2-(1-((4-(methylsulfonyl)benzyl)oxy)-2-naphthamido)pentanoic Acid] had a maximal response (Emax) of 13%.

`CS(=O)(=O)c1ccc(COc2c(C(=O)N[C@H](C(=O)O)C3CCCC3)ccc3ccccc23)cc1` [Example 159, (S)-2-cyclopentyl-2-(1-((4-(methylsulfonyl)benzyl)oxy)-2-naphthamido)acetic Acid] came in with an EC50 of 6.7 µM and an Emax of 22.8%.
